Test results published in patent US20240301319A1, “PERFUMING COMPOSITIONS” (FIRMNICH SA, priority 2017, published 2024).

Assays:
[1] = Odor threshold and odor value of perfuming compounds (Tables 4 to 10)
[2] = Volatility of perfuming compounds (Tables 4 to 10), with top/middle/bottom note type; format: physicochemical
How it was run: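 Volatility is expressed in μg/l in air. Top notes are 70,000 to 100 μg/l, middle notes 99 to 50 μg/l, and bottom notes 49 to 0.1 μg/l. Compounds are grouped by olfactive family: watery, green, fruity, citrus, sweet, gourmand and woody.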

[3] = Table 6, perfuming compounds having a fruity note
[4] = Table 7, citrus note, equals volatility divided by odor threshold
[5] = Table 6, perfuming compounds having a fruity note, note type by volatility
[6] = Table 7, citrus note, top, middle or bottom note
[7] = Table 10, perfuming compounds having a woody note, note type by volatility
[8] = perfuming compounds having a green note
[9] = note type (Top/Middle/Bottom) by volatility, perfuming compounds having a green note
[10] = Table 8, perfuming compounds having a sweet note
[11] = Table 8, perfuming compounds having a sweet note, note type by volatility
[12] = Table 4, watery note, equals volatility divided by odor threshold
[13] = Table 4, watery note, top, middle or bottom note

| Compound | Odor Threshold [1, 3] | Odor Value [1, 3] | Odor Threshold (μg/l air) ([1]; Table 7, citrus note) | Odor Value [1, 4] | Volatility [2, 3] | Type [2, 5] | Volatility (μg/l air) ([2]; Table 7, citrus note) | Type [2, 6] | Odor Threshold (μg/l air) [1, 8] | Type [2, 9] | Volatility (μg/l air) [2, 8] | further results |
| --- | --- | --- | --- | --- | --- | --- | --- | --- | --- | --- | --- | --- |
| O=C(OCc1ccccc1)c1ccccc1 [BENZYL BENZOATE] | 3.67E−02 μg/l air | 2.31E+01 | 3.67E−02 μg/l air | 2.31E+01 | 0.85 μg/l air | Bottom | 0.85 μg/l air | Bottom | – | – | – | – |
| O=C/C=C/c1ccccc1 [(E)-3-PHENYL-2-PROPENAL] | – | – | – | – | – | – | – | – | – | – | – | Odor Threshold ([1]; Table 10, woody note): 1.36E−03 μg/l air; Type [2, 7]: Middle; Volatility ([2]; Table 10, woody note): 70.14 μg/l air |
| CCOC(=O)C(C)CC (racemic) [(+−)-ethyl 2-methylbutanoate] | – | – | – | – | 83769.16 μg/l air | TOP (perfuming compounds having a volatility ranging from 70,000 to 100 μg/l in air are referred to as “top notes”) | – | – | 1.26E−04 μg/l air | Top | 83769.16 μg/l air | – |
| CCc1occc(=O)c1O [2-ETHYL-3-HYDROXY-4(4H)-PYRANONE] | 6.45E−05 μg/l air | 7.57E+05 | – | – | 48.86 μg/l air | Bottom | – | – | – | – | – | Odor Threshold [1, 10]: 6.45E−05 μg/l air; Odor Value [1, 10]: 7.57E+05; Volatility [2, 10]: 48.86 μg/l air; Type [2, 11]: Bottom |
| CC1=CCC(/C=C/C(C)C(C)O)C1(C)C (centres unmarked) | – | – | – | – | – | – | – | – | – | – | – | Odor Threshold ([1]; Table 10, woody note): 9.56E−05 μg/l air; Type [2, 7]: Bottom; Volatility ([2]; Table 10, woody note): 20.41 μg/l air |
| CC1CCC2C(C)(C)C3CC12CCC3(C)O (racemic) | – | – | – | – | – | – | – | – | – | – | – | Odor Threshold ([1]; Table 10, woody note): 3.38E−02 μg/l air; Type [2, 7]: Bottom; Volatility ([2]; Table 10, woody note): 11.83 μg/l air |
| (2RS,4SR)-4-methyl-2-phenyltetrahydro-2H-pyran (A) + (2RS,4RS)-4-methyl-2-phenyltetrahydro-2H-pyran (B) | – | – | 1.04E−03 μg/l air | 9.61E+04 | – | – | 99.84 μg/l air | Middle | – | – | – | – |
| CCC/C=C/C=O [(2E)-2-HEXENAL] | – | – | 2.53E−03 μg/l air | 1.33E+07 | 33708.26 μg/l air | TOP (perfuming compounds having a volatility ranging from 70,000 to 100 μg/l in air are referred to as “top notes”) | 33708.26 μg/l air | Top | 2.53E−03 μg/l air | Top | 33708.26 μg/l air | – |
| 3-(3,3-dimethyl-2,3-dihydro-1H-inden-5-yl)propanal (A) + 3-(1,1-dimethyl-2,3-dihydro-1H-inden-5-yl)propanal (B) | – | – | – | – | – | – | – | – | – | – | – | Odor Threshold (μg/l air) ([1]; Table 4, watery note): 1.32E−05 μg/l air; Odor Value [1, 12]: 1.04E+06; Volatility (μg/l air) ([2]; Table 4, watery note): 13.73 μg/l air; Type [2, 13]: bottom (perfuming compounds having a volatility ranging from 49 to 0.1 μg/l in air are referred to as “bottom notes”) |
| CC/C=C(\C)C(O)CCCCC (racemic) [(+−)-(E)-4-METHYL-3-DECEN-5-OL] | 6.78E−04 μg/l air | 9.46E+04 | – | – | 64.15 μg/l air | Middle | – | – | 6.78E−04 μg/l air | Middle | 64.15 μg/l air | – |
| CC(=O)OCCC1CCCCC1 [2-CYCLOHEXYL ETHYL ACETATE] | – | – | – | – | 489.45 μg/l air | TOP (perfuming compounds having a volatility ranging from 70,000 to 100 μg/l in air are referred to as “top notes”) | – | – | – | – | – | Odor Threshold [1, 10]: 4.49E−02 μg/l air; Odor Value [1, 10]: 1.09E+04; Volatility [2, 10]: 489.45 μg/l air; Type [2, 11]: Top |
| CC/C=C\CCOC(=O)c1ccccc1 [(3Z)-3-hexen-1-yl benzoate] | 4.37E−02 μg/l air | 2.53E+02 | 4.37E−02 μg/l air | 2.53E+02 | 11.05 μg/l air | Bottom | 11.05 μg/l air | Bottom | 4.37E−02 μg/l air | Bottom | 11.05 μg/l air | – |
| C=CCCCCCCCCO [9-DECEN-1-OL] | 8.92E−03 μg/l air | 3.01E+03 | 8.92E−03 μg/l air | 3.01E+03 | 26.88 μg/l air | Bottom | 26.88 μg/l air | Bottom | – | – | – | – |
| CC1=CC2CC(C=O)C1CC2C(C)C (centres unmarked) [8-ISOPROPYL-6-METHYL-BICYCLO[2.2.2]OCT-5-ENE-2-CARBALDEHYDE] | – | – | – | – | – | – | – | – | 7.11E−05 μg/l air | Top | 131.02 μg/l air | Odor Threshold (μg/l air) ([1]; Table 4, watery note): 7.11E−05 μg/l air; Odor Value [1, 12]: 1.84E+06; Volatility (μg/l air) ([2]; Table 4, watery note): 131.02 μg/l air; Type [2, 13]: TOP (perfuming compounds having a volatility ranging from 70,000 to 100 μg/l in air are referred to as “top notes”) |
